Patent US20040152596A1, “Coated seed and process for coating a seed” (priority 2001, published 2004)

Tests used:
Tomato = settings: for Emergence percentage: fertilizer 10% of seed weight, fixing agent 2% of seed weight
Method: (§1) A number of tests were carried out with the purpose of finding for various plant species the optimal fertilizer and the optimal fertilizer amount in terms of emergence. […] The fixing agent was used in an amount of 2% of the weight of the seeds. […] These percentages are % by weight, calculated from the seed weight.

[1] = fertilizer 4% of seed weight, fixing agent 2% of seed weight

Method for Barley: as §1
Method for Pea: A number of tests were carried out with the purpose of finding for various plant species the optimal fertilizer and the optimal fertilizer amount in terms of emergence. […] The fixing agent was used in an amount of 2% of the weight of the seeds. […] (DCP) or urea phosphate (UP). […] These percentages are % by weight, calculated from the seed weight.
The results of the emergence tests are shown in Table 2, wherein the numeric values indicate the emergence percentage.
Method for Rape: as §1
Method for Sunflower: as §1
Method for Wheat: as §1

Compound	Combined effect in terms of plant emergence and phosphorus uptake (Barley)	Emergence percentage (Barley; fertilizer 6% of seed weight, fixing agent 2% of seed weight) [%]	Combined effect in terms of plant emergence and phosphorus uptake (Tomato)	Emergence percentage (Tomato) [%]	Emergence percentage (Rape; fertilizer 8% of seed weight, fixing agent 2% of seed weight)	Combined effect in terms of plant emergence and phosphorus uptake (Wheat)	Emergence percentage (Wheat; [1]) [%]	Combined effect in terms of plant emergence and phosphorus uptake (Sunflower)	Emergence percentage (Sunflower; fertilizer 10% of seed weight, fixing agent 2% of seed weight) [%]	Emergence percentage (Pea; [1])	Suitability of phosphorus fertilizer as seed coating (emergence table) (Barley)	Suitability of phosphorus fertilizer as seed coating (emergence table) (Rape)	Suitability of phosphorus fertilizer as seed coating (emergence table) (Wheat)	Suitability of phosphorus fertilizer as seed coating (emergence table) (Sunflower)	Suitability of phosphorus fertilizer as seed coating (emergence table) (Pea)
O=P([O-])(O)O.[K+] [MKP, monopotassium phosphate]	best combined effect	93	best combined effect	80	85 (8%)	best combined effect	85	best combined effect	87	95 (4%)	–	–	–	–	–
NC(N)=O.O=P(O)(O)O [UP, urea phosphate]	–	–	best combined effect	82	–	–	–	–	–	–	Not suitable	Not suitable	Not suitable	Not suitable	Not suitable
